Measured values: patent US20250144105A1, “CDK9 INHIBITORS” (Origenis GmbH, priority 2022, published 2025)

Target: T1, CDK9/CyclinT1 (Homo sapiens, UniProt P50750)
T1 construct: purchased ProQinase/Reaction Biology, USA 0371-0345-1
Experiment: CDK9/T1 ADPGlo kinase assay for inhibitory activity
Type: biochemical
Settings: CDK9/CyclinT1 6 nM, PDKtide 40 microM, ATP 10 microM, 120 min at RT, luminescence readout
Description: The testing compound was evaluated in 12 concentrations in a 1:3 dilution series, starting from 5 microM as the highest concentration.
In a white 384 microplate (Greiner bio-one, Austria #784904,) with 2 microL of 3-fold concentrated CDK9/CyclinT1 (ProQinase/Reaction Biology, USA #0371-0345-1, LOT.: 012), final concentration (f.c.) 6 nM, in 1× kinase buffer, 2 microL of compound (3× fold concentrated in f.c. 1.66% DMSO/H2O) was added and incubated at Room Temperature (RT) for 10 min. Then 2 microL of Substrate/ATP-Mix (3× PDKtide f.c. 40 microM, SignalChem Biotech, Canada via Biozol, Eching, Germany #P10-58, LOT.: L2230-7 and 3× UltraPure ATP f.c. 10 microM (ADP Glo Kinase assay, Promega GmbH, Germany #V9102)) were added, mixed and incubated for 120 min at RT.
After incubation time, 5 microL of ADP Glo reagent (ready to use, ADP Glo Kinase assay, Promega GmbH, Germany #V9102) were added, mixed and incubated for 40 min at RT. In the last step, 10 microL of ADP Glo Detection reagent (ready to use, ADP Glo Kinase assay, Promega GmbH, Germany #V9102) were added, mixed and incubated for 30 min at RT. GloMax Discover GM3000 Reader (Promega GmbH, Germany 9700000249) was used for the readout.
The inhibitor concentration was plotted against the luminescence to determine the IC50 using XLFit 5.5 (IDBS, Guildford) to fit to a sigmoidal dose response curve with a variable slope.

T1 sequence (P50750 whole entry): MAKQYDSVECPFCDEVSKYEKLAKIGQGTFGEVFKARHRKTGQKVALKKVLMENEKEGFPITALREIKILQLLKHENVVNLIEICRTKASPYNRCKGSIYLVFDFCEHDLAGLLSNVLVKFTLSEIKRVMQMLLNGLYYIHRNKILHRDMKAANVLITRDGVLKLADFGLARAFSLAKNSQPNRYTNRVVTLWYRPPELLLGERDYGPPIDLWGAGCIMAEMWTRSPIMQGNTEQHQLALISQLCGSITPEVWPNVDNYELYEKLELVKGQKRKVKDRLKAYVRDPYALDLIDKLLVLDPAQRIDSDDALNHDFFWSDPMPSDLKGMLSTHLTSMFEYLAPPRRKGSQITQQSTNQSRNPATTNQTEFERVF
T1 sequence (O60563 whole entry partner): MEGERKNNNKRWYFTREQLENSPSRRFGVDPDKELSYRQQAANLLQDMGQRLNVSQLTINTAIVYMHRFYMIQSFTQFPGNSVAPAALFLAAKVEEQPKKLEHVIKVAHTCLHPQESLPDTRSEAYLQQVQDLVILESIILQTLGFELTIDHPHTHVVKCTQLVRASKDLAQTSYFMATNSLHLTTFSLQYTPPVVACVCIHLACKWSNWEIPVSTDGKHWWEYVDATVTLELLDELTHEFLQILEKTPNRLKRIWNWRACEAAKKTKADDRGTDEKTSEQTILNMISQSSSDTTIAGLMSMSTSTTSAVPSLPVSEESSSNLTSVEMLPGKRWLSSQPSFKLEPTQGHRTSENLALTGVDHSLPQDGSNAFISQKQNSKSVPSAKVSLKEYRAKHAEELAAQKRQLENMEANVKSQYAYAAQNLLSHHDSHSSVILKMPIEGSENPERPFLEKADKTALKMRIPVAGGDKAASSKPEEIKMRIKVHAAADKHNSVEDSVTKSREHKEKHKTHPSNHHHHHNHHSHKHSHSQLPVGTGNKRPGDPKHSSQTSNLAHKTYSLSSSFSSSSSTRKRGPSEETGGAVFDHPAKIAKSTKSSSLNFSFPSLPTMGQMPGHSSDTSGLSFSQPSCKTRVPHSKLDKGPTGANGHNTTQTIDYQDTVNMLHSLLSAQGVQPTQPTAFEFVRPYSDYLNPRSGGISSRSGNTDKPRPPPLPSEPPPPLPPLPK

SMILES | IC50
Fc1cccc(F)c1-c1nc(N[C@H]2CC[C@H](N3CCOCC3)CC2)c2ncc(Cl)n2n1 [Example #1, 7-chloro-2-(2,6-difluorophenyl)-N-((1r,4r)-4-morpholinocyclohexyl)imidazo[2,1-f][1,2,4]triazin-4-amine] | < 20 nM
CN(C)[C@H]1CC[C@H](Nc2nc(-c3c(F)cccc3F)nn3c(Cl)cnc23)CC1 [Example #3, (1r,4r)-N1-(7-chloro-2-(2,6-difluorophenyl)imidazo[2,1-f][1,2,4]triazin-4-yl)-N4,N4-dimethylcyclohexane-1,4-diamine] | < 20 nM
N[C@H]1CC[C@H](Nc2nc(-c3c(F)cccc3F)nn3c(Cl)cnc23)CC1 [Example #4, (1r,4r)-N1-(7-chloro-2-(2,6-difluorophenyl)imidazo[2,1-f][1,2,4]triazin-4-yl)cyclohexane-1,4-diamine] | < 20 nM
Fc1cccc(F)c1-c1nc(N[C@H]2CC[C@H](N3CCCCC3)CC2)c2ncc(Cl)n2n1 [Example #5, 7-chloro-2-(2,6-difluorophenyl)-N-((1r,4r)-4-(piperidin-1-yl)cyclohexyl)imidazo[2,1-f][1,2,4]triazin-4-amine] | < 20 nM
Fc1cccc(F)c1-c1nc(N[C@H]2CC[C@H](N3CCCC3)CC2)c2ncc(Cl)n2n1 [Example #6, 7-chloro-2-(2,6-difluorophenyl)-N-((1r,4r)-4-(pyrrolidin-1-yl)cyclohexyl)imidazo[2,1-f][1,2,4]triazin-4-amine] | < 20 nM
COCCN[C@H]1CC[C@H](Nc2nc(-c3c(F)cccc3F)nn3c(Cl)cnc23)CC1 [Example #7, (1r,4r)-N1-(7-chloro-2-(2,6-difluorophenyl)imidazo[2,1-f][1,2,4]triazin-4-yl)-N4-(2-methoxyethyl)cyclohexane-1,4-diamine] | < 20 nM
FCCN[C@H]1CC[C@H](Nc2nc(-c3c(F)cccc3F)nn3c(Cl)cnc23)CC1 [Example #8, (1r,4r)-N1-(7-chloro-2-(2,6-difluorophenyl)imidazo[2,1-f][1,2,4]triazin-4-yl)-N4-(2-fluoroethyl)cyclohexane-1,4-diamine] | < 20 nM
FCCCN[C@H]1CC[C@H](Nc2nc(-c3c(F)cccc3F)nn3c(Cl)cnc23)CC1 [Example #9, (1r,4r)-N1-(7-chloro-2-(2,6-difluorophenyl)imidazo[2,1-f][1,2,4]triazin-4-yl)-N4-(3-fluoropropyl)cyclohexane-1,4-diamine] | < 20 nM
CC(C)N1CCC(Nc2nc(-c3c(F)cccc3F)nn3c(Cl)cnc23)CC1 [Example #10, 7-chloro-2-(2,6-difluorophenyl)-N-(1-isopropylpiperidin-4-yl)imidazo[2,1-f][1,2,4]triazin-4-amine] | < 200 nM
Fc1cccc(F)c1-c1nc(NC2CCN(C3CCOCC3)CC2)c2ncc(Cl)n2n1 [Example #11, 7-chloro-2-(2,6-difluorophenyl)-N-(1-(tetrahydro-2H-pyran-4-yl)piperidin-4-yl)imidazo[2,1-f][1,2,4]triazin-4-amine] | < 200 nM
Fc1cccc(F)c1-c1nc(NC2CCN(C3CCCC3)CC2)c2ncc(Cl)n2n1 [Example #12, 7-chloro-N-(1-cyclopentylpiperidin-4-yl)-2-(2,6-difluorophenyl)imidazo[2,1-f][1,2,4]triazin-4-amine] | < 200 nM
CN1CCC(Nc2nc(-c3c(F)cccc3F)nn3c(Cl)cnc23)CC1 [Example #13, 7-chloro-2-(2,6-difluorophenyl)-N-(1-methylpiperidin-4-yl)imidazo[2,1-f][1,2,4]triazin-4-amine] | < 20 nM
CN1CCCCC1CNc1nc(-c2c(F)cccc2F)nn2c(Cl)cnc12 (stereo not shown) [Example #14, [7-Chloro-2-(2,6-difluoro-phenyl)-imidazo[2,1-f][1,2,4]triazin-4-yl]-(1-methyl-piperidin-2-ylmethyl)-amine] | < 200 nM
CCN1CCCC1CNc1nc(-c2c(F)cccc2F)nn2c(Cl)cnc12 (stereo not shown) [Example #15, 7-chloro-2-(2,6-difluorophenyl)-N-((1-ethylpyrrolidin-2-yl)methyl)imidazo[2,1-f][1,2,4]triazin-4-amine] | < 200 nM
Fc1cccc(F)c1-c1nc(NC2CCNCC2)c2ncc(Cl)n2n1 [Example #16, [7-Chloro-2-(2,6-difluoro-phenyl)-imidazo[2,1-f][1,2,4]triazin-4-yl]-piperidin-4-yl-amine] | < 20 nM
CN1CCC(CNc2nc(-c3c(F)cccc3F)nn3c(Cl)cnc23)CC1 [Example #17, [7-Chloro-2-(2,6-difluoro-phenyl)-imidazo[2,1-f][1,2,4]triazin-4-yl]-(1-methyl-piperidin-4-ylmethyl)-amine] | < 20 nM
Fc1cccc(F)c1-c1nc(NC2CN3CCC2CC3)c2ncc(Cl)n2n1 (stereo not shown) [Example #18, (1-Aza-bicyclo[2.2.2]oct-3-yl)-[7-chloro-2-(2,6-difluoro-phenyl)-imidazo[2,1-f][1,2,4]triazin-4-yl]-amine] | < 200 nM
Fc1cccc(F)c1-c1nc(NCCN2CCOCC2)c2ncc(Cl)n2n1 [Example #19, [7-Chloro-2-(2,6-difluoro-phenyl)-imidazo[2,1-f][1,2,4]triazin-4-yl]-(2-morpholin-4-yl-ethyl)-amine] | < 200 nM
CC(C)(C)OC(=O)N1CCCC(CNc2nc(-c3c(F)cccc3F)nn3c(Cl)cnc23)C1 (stereo not shown) [Example #20, tert-butyl 3-(((7-chloro-2-(2,6-difluorophenyl)imidazo[2,1-f][1,2,4]triazin-4-yl)amino)methyl)piperidine-1-carboxylate] | < 200 nM
Fc1cccc(F)c1-c1nc(NCC2CCNCC2)c2ncc(Cl)n2n1 [Example #21, 7-chloro-2-(2,6-difluorophenyl)-N-(piperidin-4-ylmethyl)imidazo[2,1-f][1,2,4]triazin-4-amine] | < 200 nM
Fc1cccc(F)c1-c1nc(NCC2CCCNC2)c2ncc(Cl)n2n1 (stereo not shown) [Example #22, 7-chloro-2-(2,6-difluorophenyl)-N-(piperidin-3-ylmethyl)imidazo[2,1-f][1,2,4]triazin-4-amine] | < 200 nM
NC1CCC(Nc2nc(-c3c(F)cccc3F)nn3c(Cl)cnc23)C1 (stereo not shown) [Example #24, N1-(7-chloro-2-(2,6-difluorophenyl)imidazo[2,1-f][1,2,4]triazin-4-yl)cyclopentane-1,3-diamine] | < 20 nM
Fc1cccc(Cl)c1-c1nc(N[C@H]2CC[C@H](N3CCOCC3)CC2)c2ncc(Cl)n2n1 [Example #27, 7-chloro-2-(2-chloro-6-fluorophenyl)-N-((1r,4r)-4-morpholinocyclohexyl)imidazo[2,1-f][1,2,4]triazin-4-amine] | < 20 nM
Clc1cccc(Cl)c1-c1nc(N[C@H]2CC[C@H](N3CCOCC3)CC2)c2ncc(Cl)n2n1 [Example #28, 7-chloro-2-(2,6-dichlorophenyl)-N-((1r,4r)-4-morpholinocyclohexyl)imidazo[2,1-f][1,2,4]triazin-4-amine] | < 20 nM
OCCN[C@H]1CC[C@H](Nc2nc(-c3c(F)cccc3F)nn3c(Cl)cnc23)CC1 [Example #32, 2-(((1r,4r)-4-((7-chloro-2-(2,6-difluorophenyl)imidazo[2,1-f][1,2,4]triazin-4-yl)amino)cyclohexyl)amino)ethan-1-ol] | < 20 nM
Fc1cccc(F)c1-c1nc(NCc2cccnc2)c2ncc(Cl)n2n1 [Example #36, 7-chloro-2-(2,6-difluorophenyl)-N-(pyridin-3-ylmethyl)imidazo[2,1-f][1,2,4]triazin-4-amine] | < 200 nM
Cc1cc(C)c(CNc2nc(-c3c(F)cccc3F)nn3c(Cl)cnc23)cn1 [Example #37, 7-chloro-2-(2,6-difluorophenyl)-N-((4,6-dimethylpyridin-3-yl)methyl)imidazo[2,1-f][1,2,4]triazin-4-amine] | < 200 nM
CN1CCN([C@H]2CC[C@H](Nc3nc(-c4c(F)cccc4F)nn4c(Cl)cnc34)CC2)CC1 [Example #38, 7-chloro-2-(2,6-difluorophenyl)-N-((1r,4r)-4-(4-methylpiperazin-1-yl)cyclohexyl)imidazo[2,1-f][1,2,4]triazin-4-amine] | < 20 nM
